{
  "source": "patent US20160299149A1",
  "about": "“ASSAYS AND METHODS FOR CELL PROLIFERATION-TARGETED TREATMENT THERAPIES” (University of Central Florida Research Foundation, Inc., priority 2015, published 2016)",
  "key": {"[1]": {"tested_on": "L3.6pl, Panc1, CHO and PanO2 cells", "test": "Cell line sensitivity to DFMO and spermidine rescue challenge", "assay_type": "cell-based", "details": "cells dosed with IC50 dose of DFMO, spermidine 1 μM, read-out: viability level after rescue by exogenous spermidine"}, "[2]": {"test": "Polyamine transport inhibitor assay 2: PTI blocks uptake of rescuing spermidine into DFMO-treated cells", "assay_type": "cell-based", "details": "DFMO dosed at its IC50; Spd 1 μM; PTI not above its IC10; relative to untreated control; read-out: cell viability", "experimental": "FIG. 6A is a diagram showing an assay wherein the uptake of rescuing dose of spermidine into DFMO-treated cells is blocked by a PTI (GW 5074).\n(§1) DFMO was dosed to give 50% relative viability versus an untreated control, i.e. DFMO is dosed at its IC50 value. Exogenous spermidine (Spd, 1 μM) is added to the DFMO treated cells and provided significant rescue of these cells to >80% viability depending upon the cell line. A successful PTI was able to block the entry of the spermidine rescuing agent into DFMO treated cells and result in a cell viability near the DFMO control (i.e. 50% viability). The inventors identified the following cell viabilities: DFMO only (50%), Spd only (100%), PTI (>90%), DFMO+Spd (>80%), DFMO+Spd+PTI (50%). The PTI provides a dose dependent lowering of cell viability in the presence of DFMO and a rescuing dose of spermidine. […] Identifying cells that respond to exogenous spermidine allow this assay to be possible and the c-myc and ATP13A3 biomarkers help predict these outcomes as well as the Vmax measurements for ^3H Spd import."}, "[3]": {"tested_on": "SU86.86", "test": "Spermidine rescue of DFMO-treated cells", "assay_type": "cell-based, human", "details": "DFMO-treated SU86.86 cells", "experimental": "(§2) FIG. 8 provides an illustration and a table showing different cell line sensitivity to DFMO and spermidine rescue challenge. The rescue challenge experiment doses cells with the respective IC50 dose of DFMO for that cell line and measures the viability of cells with and without added spermidine (1 μM). Cell lines without added spermidine give the expected 50% viability due to the presence of DFMO. […] These are highlighted in red. Cell lines with low polyamine transport activity are not rescued to a significant extent even though a rescuing dose of spermidine is available and give viabilities near 50%.\nas §1"}, "[4]": {"tested_on": "BxPC-3", "test": "Spermidine rescue of DFMO-treated cells", "assay_type": "cell-based, human", "details": "DFMO-treated BxPC-3 cells", "experimental": "as §2, §1"}, "[5]": {"tested_on": "AspC-1", "test": "Spermidine rescue of DFMO-treated cells", "assay_type": "cell-based, human", "details": "DFMO-treated AspC-1 cells", "experimental": "as §2, §1"}, "[6]": {"tested_on": "Panc-1", "test": "Spermidine rescue of DFMO-treated cells", "assay_type": "cell-based, human", "details": "DFMO-treated Panc-1 cells", "experimental": "as §2, §1"}, "[7]": {"tested_on": "Capan-1", "test": "Spermidine rescue of DFMO-treated cells", "assay_type": "cell-based, human", "details": "DFMO-treated Capan-1 cells", "experimental": "as §2, §1"}, "[8]": {"tested_on": "L3.6pl", "test": "Spermidine rescue of DFMO-treated cells", "assay_type": "cell-based, human", "details": "DFMO-treated L3.6pl cells", "experimental": "as §2, §1"}, "[9]": {"tested_on": "HPNE", "test": "Spermidine rescue of DFMO-treated cells", "assay_type": "cell-based, human", "experimental": "as §2, §1"}, "[10]": {"tested_on": "SU86.86", "test": "3H Spd import Vmax, untreated cells", "assay_type": "cell-based, human", "excerpt": "(§3) FIG. 10 is a table providing the Relative Protein expression of Cav-1, ATP13A3 and c-myc in human pancreatic cancer cell lines along with the respective Vmax values for ^3H spermidine (Spd) import and the relative affinity Km values determined for spermidine. Entries represent 100%×protein expression/beta actin expression as shown in FIG. 10 along with the Vmax value already provided. The Western blots were quantified by Image J software (NIH) and normalized by dividing by the beta-actin expression level for each cell line. Entries represent protein expression and are expressed in relative %, with the L3.6pl cell expression levels set to 100%.\n(§4) FIG. 10 provides a table showing the relative protein expression of Cav-1, ATP13A3 and c-myc in human pancreatic cancer cell lines (normalized by dividing by the relative beta actin expression level) along with the respective Vmax values for ^3H Spd import and Km values. The entries represent 100%×protein expression/beta actin expression is shown in the table along with the Vmax and Km values reported earlier. As mentioned earlier, a strong correlation was found between ATP13A3 expression and the ability of DFMO-treated cells to be rescued by exogenous spermidine (FIG. 8, rightmost column)."}, "[11]": {"tested_on": "BxPC-3", "test": "3H Spd import Vmax, untreated cells", "assay_type": "cell-based, human", "excerpt": "as §3, §4"}, "[12]": {"tested_on": "AspC-1", "test": "3H Spd import Vmax, untreated cells", "assay_type": "cell-based, human", "excerpt": "as §3, §4"}, "[13]": {"tested_on": "Panc-1", "test": "3H Spd import Vmax, untreated cells", "assay_type": "cell-based, human", "excerpt": "as §3, §4"}, "[14]": {"tested_on": "Capan-1", "test": "3H Spd import Vmax, untreated cells", "assay_type": "cell-based, human", "excerpt": "as §3, §4"}, "[15]": {"tested_on": "L3.6pl", "test": "3H Spd import Vmax, untreated cells", "assay_type": "cell-based, human", "excerpt": "as §3, §4"}, "[16]": {"tested_on": "HPNE", "test": "3H Spd import Vmax, untreated cells", "assay_type": "cell-based, human", "excerpt": "as §3, §4"}, "[17]": {"tested_on": "MALME-3M cells and MALME-3 control cells", "test": "Spermidine competition / percent viability with compound A", "assay_type": "cell-based", "details": "100 μM; MALME-3M and MALME-3", "experimental": "Aminoguanidine (AG) at 1 mM was determined to be non-toxic and was incubated with cells for 24 h prior to compound addition. Control represents the untreated cells. All experiments were performed in triplicate. Spermidine (Spd, 100 μM) was non-toxic to both cell lines. […] Compound A is a valid polyamine transport probe."}},
  "data": [
    {"smiles": "NCCCCNCCCN", "note": "[Spermidine, spermidine]", "values": [
      {"measurement": "viability at 1 μM", "setting": "[1]", "value": "> 80", "unit": "%"},
      {"measurement": "viability at 1 μM", "setting": "[2]", "value": 100, "unit": "%"},
      {"measurement": "Spd rescue index", "setting": "[3]", "value": "med"},
      {"measurement": "Spd rescue index", "setting": "[4]", "value": "low"},
      {"measurement": "Spd rescue index", "setting": "[5]", "value": "Not rescuable"},
      {"measurement": "Spd rescue index", "setting": "[6]", "value": "med"},
      {"measurement": "Spd rescue index", "setting": "[7]", "value": "Not rescuable"},
      {"measurement": "Spd rescue index", "setting": "[8]", "value": "high"},
      {"measurement": "Spd rescue index", "setting": "[9]", "value": "very low"},
      {"measurement": "Vmax of ^3H Spd untreated cells", "setting": "[10]", "value": 7.0, "unit": "nmoles Spd/mg protein/min"},
      {"measurement": "Vmax of ^3H Spd untreated cells", "setting": "[11]", "value": 9.0, "unit": "nmoles Spd/mg protein/min"},
      {"measurement": "Vmax of ^3H Spd untreated cells", "setting": "[12]", "value": 2.3, "unit": "nmoles Spd/mg protein/min"},
      {"measurement": "Vmax of ^3H Spd untreated cells", "setting": "[13]", "value": 13, "unit": "nmoles Spd/mg protein/min"},
      {"measurement": "Vmax of ^3H Spd untreated cells", "setting": "[14]", "value": 0.8, "unit": "nmoles Spd/mg protein/min"},
      {"measurement": "Vmax of ^3H Spd untreated cells", "setting": "[15]", "value": 24, "unit": "nmoles Spd/mg protein/min"},
      {"measurement": "Vmax of ^3H Spd untreated cells", "setting": "[16]", "value": 1.8, "unit": "nmoles Spd/mg protein/min"},
      {"measurement": "toxicity to both cell lines", "setting": "[17]", "value": "non-toxic"}
    ]}
  ]
}
